According to patent US9115148B2, “Spirocyclic derivatives as histone deacetylase inhibitors” (DAC S.R.L., priority 2008, dated 2015):

Columns and labels:
HCT-116 cells = experiment: Cell growth, CellTiter-Glo Luminescent Cell Viability Assay, HCT-116; assay type: cell-based; conditions: Homo sapiens, HCT116 cells, 72 h incubation, read-out: IC50 antiproliferative assay HCT116
From the text: (§1) CellTiter-Glo® Luminescent Cell Viability Assay (Promega) is a homogeneous method of determining the number of viable cells in culture based on quantitation of the present ATP, which indicates the presence of metabolically active cells. The homogeneous assay procedure involves addition of a single reagent (CellTiter-Glo® Reagent) directly to the cells, which leads to cell lysis and generation of a luminescent signal proportional to the amount of the ATP and the number of cells present in culture. The assay relies on the properties of a proprietary thermostable luciferase (Ultra-Glo® recombinant luciferase), which generates a luminescent signal.
(§2) K562, A549 and HCT-116 cells, in exponential growth, were incubated for 72 h with different concentrations of the inhibitors. After 72 h, a volume of CellTiter-Glo® Reagent equal to the volume of cell culture medium was added. The content was mixed for 2 min to induce cell lysis. The luminescence was recorded after further 10 min at RT in order to obtain a stabilized luminescent signal.
(§3) The IC50 was calculated using GraphPad Software.
(§4) IC50 results were allocated to one of 3 ranges as follows: Range A: IC50≦1.0 μM; Range B: from 1.0 to 3.0 μM; Range C: IC50≧3.0 μM.

[1] = tested on: HDAC (nuclear fraction of Hela cells); experiment: Assay of enzyme inhibition of HDAC (BIOMOL Kit); assay type: biochemical; conditions: substrate 200 μM, 15 min at RT
Experimental: 2.2 Assay of Enzyme Inhibition of HDAC
The in-vitro activity of HDAC inhibitors was assayed using a BIOMOL Kit, according to the instructions from the manufacturer (Biomolecular Research Laborator). 15 μl of 30× diluted nuclear fraction of Hela cells, was diluted to 50 μl with the assay buffer containing the HDAC inhibitor and the substrate (lysine with acetylated amino group on the side chain) at a concentration of 200 μM. The samples were incubated for 15 min at RT and then exposed to a developer (10 min at RT). In this last step a fluorophore was produced, whose fluorescence was measured using an excitation wavelength of 355 nm and an emission at 460 nm. The IC50 was calculated using GraphPad Software.

A549 cells = experiment: Cell growth, CellTiter-Glo Luminescent Cell Viability Assay, A549; assay type: cell-based; conditions: Homo sapiens, 72 h incubation, read-out: IC50 antiproliferative assay A549
From the text: as §1, §2, §3, §4

K562 cells = experiment: Cell growth, CellTiter-Glo Luminescent Cell Viability Assay, K562; assay type: cell-based; conditions: Homo sapiens, 72 h incubation, read-out: IC50 antiproliferative assay K562
From the text: as §1, §2, §3, §4

SMILES | IC50 (HCT-116 cells) | IC50 [1] | IC50 (A549 cells) | IC50 (K562 cells)
O=C(/C=C/c1ccc2c(c1)C(=O)CC1(CCN(CCc3ccccc3)CC1)O2)NO [Example 55, (E)-3-{1′-(2-Phenyl-ethyl)-4-oxo-spiro[chromane-2,4′-piperidine]-6-yl}-N-hydroxy-acrylamide] | ≤ 1 µM | 0.1 to 1 µM | ≤ 1 µM | ≤ 1 µM
O=C(/C=C/c1ccc2c(c1)C(=O)CC1(CCN(Cc3c[nH]c4cc(F)ccc34)CC1)O2)NO [Example 53, (E)-3-{1′-(6-Fluoro-1H-indol-3-ylmethyl)-4-oxo-spiro[chromane-2,4′-piperidine]-6-yl}-N-hydroxy-acrylamide] | ≤ 1 µM | < 0.1 µM | 1 to 3 µM | ≤ 1 µM
O=C(/C=C/c1ccc2c(c1)C(=O)NC1(CCN(CCc3ccccc3)CC1)O2)NO [Example 71, (E)-3-{1′-(2-Phenyl-ethyl)-3,4-dihydro-4-oxo-spiro[2H-(1,3)-benzoxazine-2,4′-piperidin]-6-yl}-N-hydroxy-acrylamide] | ≤ 1 µM | < 0.1 µM | 1 to 3 µM | ≤ 1 µM
O=C(/C=C/c1ccc2c(c1)C(=O)CC1(CCN(Cc3ccccn3)CC1)O2)NO [Example 40, (E)-3-{1′-(Pyridin-2-ylmethyl)-4-oxo-spiro[chromane-2,4′-piperidine]-6-yl}-N-hydroxy-acrylamide] | ≤ 1 µM | 0.1 to 1 µM | 1 to 3 µM | ≤ 1 µM
O=C(/C=C/c1ccc2c(c1)C(O)CC1(CCN(Cc3ccccc3)CC1)O2)NO (centres unmarked) [Example 14, (E)-3-{1′-Benzyl-4-hydroxy-spiro[chromane-2,4′-piperidine]-6-yl}-N-hydroxy-acrylamide] | 1 to 3 µM | > 1 µM | ≥ 3 µM | 1 to 3 µM
O=C(/C=C/c1ccc2c(c1)C(=O)C1(CCNCC1)O2)NO [Example 20, (E)-3-{3-oxo-spiro[benzofuran-2(3H), 4′-piperidin]-5-yl}-N-hydroxy-acrylamide] | ≤ 1 µM | 0.1 to 1 µM | 1 to 3 µM | 1 to 3 µM
O=C(/C=C/c1ccc2c(c1)C(=O)CC1(CCN(CCc3ccc(F)cc3)CC1)O2)NO [Example 56, (E)-3-{1′-[2-(4-Fluoro-phenyl)-ethyl]-4-oxo-spiro[chromane-2,4′-piperidine]-6-yl}-N-hydroxy-acrylamide] | ≤ 1 µM | < 0.1 µM | ≤ 1 µM | ≤ 1 µM
COc1ccc(CCN2CCC3(CC2)CC(=O)c2cc(/C=C/C(=O)NO)ccc2O3)cc1 [Example 58, (E)-3-{1′-[2-(4-Methoxy-phenyl)-ethyl]-4-oxo-spiro[chromane-2,4′-piperidine]-6-yl}-N-hydroxy-acrylamide] | ≤ 1 µM | < 0.1 µM | ≤ 1 µM | ≤ 1 µM
Cc1ccccc1CN1CCC2(CC1)CC(=O)c1cc(/C=C/C(=O)NO)ccc1O2 [Example 28, (E)-3-{1′-(2-Methyl-benzyl)-4-oxo-spiro[chromane-2,4′-piperidine]-6-yl}-N-hydroxy-acrylamide] | 1 to 3 µM | 0.1 to 1 µM | 1 to 3 µM | ≤ 1 µM
O=C(/C=C/c1ccc2c(c1)C(=O)CC1(CCN(CCc3ccc(Cl)cc3)CC1)O2)NO [Example 57, (E)-3-{1′-[2-(4-Chloro-phenyl)-ethyl]-4-oxo-spiro[chromane-2,4′-piperidine]-6-yl}-N-hydroxy-acrylamide] | ≤ 1 µM | 0.1 to 1 µM | ≤ 1 µM | ≤ 1 µM
O=C(/C=C/c1ccc2c(c1)C(=O)CC1(CCN(CCc3c[nH]c4ccccc34)CC1)O2)NO [Example 49] | ≤ 1 µM | < 0.1 µM | ≤ 1 µM | ≤ 1 µM
CN1C(=O)c2cc(/C=C/C(=O)NO)ccc2OC12CCNCC2 [Example 79, (E)-3-{3,4-Dihydro-3-methyl-4-oxo-spiro[2H-(1,3)-benzoxazine-2,4′-piperidin]-6-yl}-N-hydroxy-acrylamide] | ≥ 3 µM | 0.1 to 1 µM | ≥ 3 µM | ≥ 3 µM
O=C(/C=C/c1ccc2c(c1)C(=O)CC1(CCN(Cc3ccc(Cl)cc3)CC1)O2)NO [Example 39, (E)-3-{1′-(4-Chloro-benzyl)-4-oxo-spiro[chromane-2,4′-piperidine]-6-yl}-N-hydroxy-acrylamide] | ≤ 1 µM | 0.1 to 1 µM | 1 to 3 µM | ≤ 1 µM
O=C(/C=C/c1ccc2c(c1)C(=O)CC1(CCN(CCCc3ccccc3)CC1)O2)NO [Example 45, (E)-3-{1′-(3-Phenyl-propyl)-4-oxo-spiro[chromane-2,4′-piperidine]-6-yl}-N-hydroxy-acrylamide] | ≤ 1 µM | 0.1 to 1 µM | 1 to 3 µM | ≤ 1 µM
O=C(/C=C/c1ccc2c(c1)C(=O)CC1(CCN(C(=O)NCc3ccccc3)CC1)O2)NO [Example 47, (E)-3-{1′-Benzylcarbamoyl-4-oxo-spiro[chromane-2,4′-piperidine]-6-yl}-N-hydroxy-acrylamide] | ≥ 3 µM | 0.1 to 1 µM | ≥ 3 µM | ≥ 3 µM
O=C(/C=C/c1ccc2c(c1)C(=O)CC1(CCN(Cc3c[nH]c4ccc(F)cc34)CC1)O2)NO [Example 54, (E)-3-{1′-(5-Fluoro-1H-indol-3-ylmethyl)-4-oxo-spiro[chromane-2,4′-piperidine]-6-yl}-N-hydroxy-acrylamide] | ≤ 1 µM | < 0.1 µM | ≤ 1 µM | ≤ 1 µM
CN1C(=O)c2cc(/C=C/C(=O)NO)ccc2OC12CCN(Cc1ccc(F)cc1)CC2 [Example 75, (E)-3-{1′-(4-Fluoro-benzyl)-3,4-dihydro-3-methyl-4-oxo-spiro[2H-(1,3)-benzoxazine-2,4′-piperidin]-6-yl}-N-hydroxy-acrylamide] | ≤ 1 µM | 0.1 to 1 µM | 1 to 3 µM | ≤ 1 µM
O=C(/C=C/c1ccc2c(c1)C(=O)CC1(CCN(C3CCCC3)CC1)O2)NO [Example 70, (E)-3-{1′-Cyclopentyl-4-oxo-spiro[chromane-2,4′-piperidine]-6-yl}-N-hydroxy-acrylamide] | – | 0.1 to 1 µM | – | –
COc1ccc(CN2CCC3(CC2)CC(=O)c2cc(/C=C/C(=O)NO)ccc2O3)cc1 [Example 33, (E)-3-{1′-(4-Methoxy-benzyl)-4-oxo-spiro[chromane-2,4′-piperidine]-6-yl}-N-hydroxy-acrylamide] | ≤ 1 µM | 0.1 to 1 µM | ≤ 1 µM | ≤ 1 µM
COc1cccc(CN2CCC3(CC2)CC(=O)c2cc(/C=C/C(=O)NO)ccc2O3)c1 [Example 32, (E)-3-{1′-(3-Methoxy-benzyl)-4-oxo-spiro[chromane-2,4′-piperidine]-6-yl}-N-hydroxy-acrylamide] | ≤ 1 µM | 0.1 to 1 µM | 1 to 3 µM | ≤ 1 µM
Nc1ccc(CCN2CCC3(CC2)CC(=O)c2cc(/C=C/C(=O)NO)ccc2O3)cc1 [Example 62, (E)-3-{1′-[2-(4-Amino-phenyl)-ethyl]-4-oxo-spiro[chromane-2,4′-piperidine]-6-yl}-N-hydroxy-acrylamide] | ≤ 1 µM | < 0.1 µM | ≤ 1 µM | ≤ 1 µM
O=C(/C=C/c1ccc2c(c1)C(=O)CC1(CCN(Cc3ccccc3-c3ccccc3)CC1)O2)NO [Example 67, (E)-3-{1′-(Biphenyl-2yl-methyl)-4-oxo-spiro[chromane-2,4′-piperidine]-6-yl}-N-hydroxy-acrylamide] | – | 0.1 to 1 µM | – | –
O=C(/C=C/c1ccc2c(c1)C(=O)CC1(CCN(Cc3ccc4ccccc4n3)CC1)O2)NO [Example 65, (E)-3-{1′-(Quinolin-2-ylmethyl)-4-oxo-spiro[chromane-2,4′-piperidine]-6-yl}-N-hydroxy-acrylamide] | – | < 0.1 µM | – | –
Cc1ccc(CCN2CCC3(CC2)CC(=O)c2cc(/C=C/C(=O)NO)ccc2O3)cc1 [Example 61, (E)-3-{1′-[2-(4-Methyl-phenyl)-ethyl]-4-oxo-spiro[chromane-2,4′-piperidine]-6-yl}-N-hydroxy-acrylamide] | – | < 0.1 µM | – | –
O=C(/C=C/c1ccc2c(c1)C(=O)CC1(CCN(Cc3cnc4ccccc4c3)CC1)O2)NO [Example 66, (E)-3-{1′-(Quinolin-3-ylmethyl)-4-oxo-spiro[chromane-2,4′-piperidine]-6-yl}-N-hydroxy-acrylamide] | – | 0.1 to 1 µM | – | –
O=C(/C=C/c1ccc2c(c1)C(=O)N(Cc1ccccc1)C1(CCNCC1)O2)NO [Example 82, (E)-3-{3,4-Dihydro-3-benzyl-4-oxo-spiro[2H-(1,3)-benzoxazine-2,4′-piperidin]-6-yl}-N-hydroxy-acrylamide] | – | < 0.1 µM | – | –
